Laboratory results as given in patent US20260166162A1, “CARBON CHAIN SUBSTANCE FOR REGULATING TRANSMEMBRANE TRANSPORT AND FLUIDITY OF CELL MEMBRANES, AND PREPARATION AND USE THEREOF” (priority 2022, published 2026).
Read-outs that look alike come from different tables or passages of the source.

Columns and labels:
Staphylococcus aureus = assay: Bacteriostasis/sterilization test (plate count); type: cell-based; settings: 2 h
Streptococcus pneumoniae = assay: Bacteriostasis/sterilization test (plate count); type: cell-based; settings: 9 mM, 2 h
Klebsiella pneumoniae = assay: Bacteriostasis/sterilization test (plate count); type: cell-based; settings: 9 mM, 2 h
Escherichia coli = assay: Bacteriostasis/sterilization test (plate count); type: cell-based; settings: 9 mM, 2 h
[1] = system: Methicillin-resistant Staphylococcus aureus; assay: Bacteriostasis/sterilization test (plate count); type: cell-based; settings: 9 mM, 2 h; listed as printed as Methicillin-resistant Streptococcus pneumoniae
Pseudomonas aeruginosa = assay: Bacteriostasis/sterilization test (plate count); type: cell-based; settings: 9 mM, 2 h
TNF-α = assay: Skin photoaging (UVB) in BALB/c nude mice, serum TNF-α (Example II-54, Table II-32); type: in vivo, mouse; settings: UVB-irradiated BALB/c nude mice, 40 days
IL-1β = assay: Skin photoaging (UVB) in BALB/c nude mice, serum IL-1β (Example II-54, Table II-33); type: in vivo, mouse; settings: serum, UVB-irradiated BALB/c nude mice, 40 days
IL-6 = assay: Skin photoaging (UVB) in BALB/c nude mice, serum IL-6 (Example II-54, Table II-34); type: in vivo, mouse; settings: serum, UVB-irradiated BALB/c nude mice, 40 days
Neocopyovirus = type: in vivo; settings: 1 mM; n=3
[2] = system: SARS-CoV-2 pseudovirus (B.1.526.2); type: cell-based; settings: n=3
293T cells = assay: Cellular phagocytosis of DiD-loaded lipid vesicles (nano-drugs) by 293T cells (Example II-51, Table II-29); type: cell-based; settings: 293T cells pretreated 4 h, DiD lipid vesicles 2 h, n=3, untreated control 226.46 ± 1.26
Hela cells = assay: Cell membrane fluidity (Laurdan fluorescence recovery) in Hela cells; type: cell-based

Compound: CCCCCCCC(=O)OCC1OC(O)C(O)C(O)C1O (stereo not shown)
- IC50 (Staphylococcus aureus; read-out: half maximal inhibition concentration): 4.5 mM
- inhibition rate (Staphylococcus aureus; concentration 72 mM-9 mM): greater than 99%
- Sterilization rate (%) (Streptococcus pneumoniae): >99%
- Sterilization rate (%) (Klebsiella pneumoniae): >99%
- Sterilization rate (%) (Escherichia coli): >99%
- Sterilization rate (%) [1]: >99%
- Sterilization rate (%) (Pseudomonas aeruginosa): >99%

Compound: CCC=CCC=CCC=CCCCCCCCC(=O)OCC(N)C(=O)O (stereo not shown) [Ser-linolenic acid]
- TNF-α (TNF-α; 30 μM smeared): 51 pg/mL
- TNF-α (TNF-α; 50 μM smeared): 49 pg/mL
- TNF-α (TNF-α; 100 μM smeared): 47 pg/mL
- IL-1β (IL-1β; 30 μM smeared): 62 pg/mL
- IL-1β (IL-1β; 50 μM smeared): 53 pg/mL
- IL-1β (IL-1β; 100 μM smeared): 58 pg/mL
- IL-6 (IL-6; 30 μM smeared): 29 pg/mL
- IL-6 (IL-6; 50 μM smeared): 33 pg/mL
- IL-6 (IL-6; 100 μM smeared): 31 pg/mL

Compound: CCC=CCC=CCC=CCC=CCC=CCCCC(=O)OCC(N)C(=O)O (stereo not shown) [Serine-EPA]
- Fluorescence intensity (Neocopyovirus): 4.8 ± 0.96

Compound: CCCCCC=CCC=CCCCCCCCC(=O)OCC(N)C(=O)O (stereo not shown) [Serine-LA]
- Fluorescence intensity (Neocopyovirus): 2.8 ± 0.56
- Inhibition rate (%) ([2]; 2 nM): 60.54 ± 5.59%
- Inhibition rate (%) ([2]; 5 nM): 79.66 ± 5.97%
- Inhibition rate (%) ([2]; 10 nM): 78.34 ± 4.87%
- Inhibition rate (%) ([2]; 50 nM): 77.33 ± 4.56%
- Inhibition rate (%) ([2]; 100 nM): 73.66 ± 1.33%
- Inhibition rate (%) ([2]; 1 μM): -102.33 ± 4.36%
- Inhibition rate (%) ([2]; 10 μM): 54.26 ± 0.53%
- Inhibition rate (%) ([2]; 50 μM): 51.36 ± 0.87%
- Inhibition rate (%) ([2]; 100 μM): 93.68 ± 0.73%
- Fluorescence intensity (293T cells; 2 nM): 89.36 ± 0.21
- Fluorescence intensity (293T cells; 5 nM): 46.06 ± 0.02
- Fluorescence intensity (293T cells; 10 nM): 49.05 ± 0.22
- Fluorescence intensity (293T cells; 50 nM): 51.34 ± 0.32
- Fluorescence intensity (293T cells; 100 nM): 59.65 ± 0.54
- Fluorescence intensity (293T cells; 1 uM): 458.20 ± 0.55
- Fluorescence intensity (293T cells; 10 uM): 103.58 ± 0.71
- Fluorescence intensity (293T cells; 50 uM): 110.15 ± 0.41
- Fluorescence intensity (293T cells; 100 uM): 14.31 ± 0.13

Compound: CCCCCCCC(=O)O [n-octanoic acid]
- Fluorescence recovery rate % (Hela cells; 2 nM, 20 s): 65.57%
- Fluorescence recovery rate % (Hela cells; 2 nM, 40 s): 66.78%
- Fluorescence recovery rate % (Hela cells; 2 nM, 60 s): 66.54%
- Fluorescence recovery rate % (Hela cells; 2 nM, 80 s): 67.22%
- Fluorescence recovery rate % (Hela cells; 5 nM, 20 s): 66.75%
- Fluorescence recovery rate % (Hela cells; 5 nM, 40 s): 67.05%
- Fluorescence recovery rate % (Hela cells; 5 nM, 60 s): 67.59%
- Fluorescence recovery rate % (Hela cells; 5 nM, 80 s): 66.98%
- Fluorescence recovery rate % (Hela cells; 10 nM, 20 s): 64.02%
- Fluorescence recovery rate % (Hela cells; 10 nM, 40 s): 65.23%
- Fluorescence recovery rate % (Hela cells; 10 nM, 60 s): 65.45%
- Fluorescence recovery rate % (Hela cells; 10 nM, 80 s): 66.51%
- Fluorescence recovery rate % (Hela cells; 50 nM, 20 s): 67.32%
- Fluorescence recovery rate % (Hela cells; 50 nM, 40 s): 67.94%
- Fluorescence recovery rate % (Hela cells; 50 nM, 60 s): 68.02%
- Fluorescence recovery rate % (Hela cells; 50 nM, 80 s): 68.65%
- Fluorescence recovery rate % (Hela cells; 50 μM, 20 s): 64.31%
- Fluorescence recovery rate % (Hela cells; 50 μM, 40 s): 69.09%
- Fluorescence recovery rate % (Hela cells; 50 μM, 60 s): 73.41%
- Fluorescence recovery rate % (Hela cells; 50 μM, 80 s): 78.32%
- Fluorescence recovery rate % (Hela cells; 100 μM, 20 s): 66.15%
- Fluorescence recovery rate % (Hela cells; 100 μM, 40 s): 71.58%
- Fluorescence recovery rate % (Hela cells; 100 μM, 60 s): 75.11%
- Fluorescence recovery rate % (Hela cells; 100 μM, 80 s): 79.84%
- Fluorescence intensity (Neocopyovirus): 5.8 ± 0.76
- Fluorescence intensity (293T cells; 2 nM): 157.30
- Fluorescence intensity (293T cells; 5 nM): 108.56
- Fluorescence intensity (293T cells; 10 nM): 83.70
- Fluorescence intensity (293T cells; 50 nM): 76.25
- Fluorescence intensity (293T cells; 100 nM): 106.35
- Fluorescence intensity (293T cells; 1 uM): 141.79
- Fluorescence intensity (293T cells; 10 uM): 124.85
- Fluorescence intensity (293T cells; 50 uM): 64.86
- Fluorescence intensity (293T cells; 100 uM): 36.35 ± 6.23
